Measured values published in patent US9284318B2, “Protein kinase inhibitors” (Pharmascience, Inc., priority 2011, dated 2016).

Columns and labels:
cFMS(h) = target: T1, cFMS(h) (Homo sapiens, UniProt P07333); test: Kinase Profiler Service Assay, cFMS; format: biochemical; settings: at 100 nM
T1 construct: purchased Millipore (Kinase Profiler Service)
Experimental: (§1) Selected kinase binding affinities were determined using Kinase Profiler™ Service Assay Protocols (Millipore, V53.0).

Aurora-B(h) = target: T2, Aurora-B(h) (Homo sapiens, UniProt Q96GD4); test: Kinase Profiler Service Assay, Aurora-B; format: biochemical; settings: at 100 nM
T2 construct: purchased Millipore (Kinase Profiler Service)
Experimental: as §1

Flt3 (h) = target: T3, Flt3 (h) (Homo sapiens, UniProt P36888); test: Kinase Profiler Service Assay, Flt3; format: biochemical; settings: at 100 nM
T3 construct: purchased Millipore (Kinase Profiler Service)
T3 sequence (P36888 27-993): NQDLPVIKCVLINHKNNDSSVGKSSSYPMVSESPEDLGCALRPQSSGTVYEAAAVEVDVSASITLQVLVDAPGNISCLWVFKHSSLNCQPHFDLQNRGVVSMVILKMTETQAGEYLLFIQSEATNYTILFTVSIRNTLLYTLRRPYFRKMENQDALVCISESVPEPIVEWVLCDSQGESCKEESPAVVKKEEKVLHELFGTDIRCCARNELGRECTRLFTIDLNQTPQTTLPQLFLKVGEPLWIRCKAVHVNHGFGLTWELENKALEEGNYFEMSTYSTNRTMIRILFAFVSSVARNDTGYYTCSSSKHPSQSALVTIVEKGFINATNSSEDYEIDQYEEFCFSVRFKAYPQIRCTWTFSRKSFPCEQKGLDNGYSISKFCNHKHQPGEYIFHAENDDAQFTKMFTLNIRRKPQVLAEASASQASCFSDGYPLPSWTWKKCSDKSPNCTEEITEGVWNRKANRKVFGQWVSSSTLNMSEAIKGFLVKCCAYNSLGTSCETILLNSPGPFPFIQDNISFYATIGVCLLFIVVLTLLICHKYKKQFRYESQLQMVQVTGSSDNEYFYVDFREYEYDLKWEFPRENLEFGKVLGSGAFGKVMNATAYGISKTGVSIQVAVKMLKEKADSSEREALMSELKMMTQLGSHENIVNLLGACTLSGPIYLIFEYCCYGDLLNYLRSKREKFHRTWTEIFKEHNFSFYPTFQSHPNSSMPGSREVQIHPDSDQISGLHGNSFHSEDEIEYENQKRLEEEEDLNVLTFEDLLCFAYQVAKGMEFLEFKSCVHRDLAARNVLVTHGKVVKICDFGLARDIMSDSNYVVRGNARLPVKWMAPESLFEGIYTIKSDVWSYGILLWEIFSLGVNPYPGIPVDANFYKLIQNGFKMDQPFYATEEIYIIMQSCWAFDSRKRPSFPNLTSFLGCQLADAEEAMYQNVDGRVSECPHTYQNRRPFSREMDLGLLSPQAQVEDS
Experimental: as §1

KDR(h) = target: T4, KDR(h) (Homo sapiens, UniProt P35968); test: Kinase Profiler Service Assay, KDR; format: biochemical; settings: at 100 nM
T4 construct: purchased Millipore (Kinase Profiler Service)
Experimental: as §1

PDGFR-b(h) = target: T5, PDGFR-b(h) (Homo sapiens, UniProt P09619); test: Kinase Profiler Service Assay, PDGFR-b; format: biochemical; settings: at 100 nM
T5 construct: purchased Millipore (Kinase Profiler Service)
Experimental: as §1

FGFR1 = target: T6, FGFR1 (Homo sapiens, UniProt P11362); test: Kinase Profiler Service Assay, FGFR1; format: biochemical; settings: at 100 nM
T6 construct: purchased Millipore (Kinase Profiler Service)
Experimental: as §1

Tie2 = target: T7, Tie2 (Homo sapiens, UniProt Q02763); test: Kinase Profiler Service Assay, Tie2; format: biochemical; settings: at 100 nM
T7 construct: purchased Millipore (Kinase Profiler Service)
Experimental: as §1

FLT4 = target: T8, FLT4 (Homo sapiens, UniProt P35916); test: Kinase Profiler Service Assay, FLT4; format: biochemical; settings: at 100 nM
T8 construct: purchased Millipore (Kinase Profiler Service)
Experimental: as §1

[1] = target: T9, recombinant human colony stimulating factor 1 receptor (FMS) (Homo sapiens, UniProt P07333); test: Biochemical cFMS (CSF1R) fluorescence polarization kinase assay; settings: 10 μM ATP, 100 μM substrate, 60 minutes
T9 construct: containing the catalytic domain (amino acids 538-910); His tag; purchased Invitrogen; host or cells: insect cells
T9 sequence (P07333 538-910): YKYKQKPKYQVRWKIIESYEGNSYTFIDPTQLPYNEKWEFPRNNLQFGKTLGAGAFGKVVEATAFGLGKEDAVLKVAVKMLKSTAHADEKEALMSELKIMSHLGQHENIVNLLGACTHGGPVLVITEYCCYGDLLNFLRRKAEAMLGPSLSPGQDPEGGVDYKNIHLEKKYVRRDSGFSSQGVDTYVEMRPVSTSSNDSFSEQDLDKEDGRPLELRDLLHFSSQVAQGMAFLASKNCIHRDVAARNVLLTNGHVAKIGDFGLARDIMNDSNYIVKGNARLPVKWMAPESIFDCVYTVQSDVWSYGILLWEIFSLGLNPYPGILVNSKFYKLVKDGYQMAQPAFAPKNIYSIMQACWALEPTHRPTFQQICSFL
Experimental: Biochemical cFMS (CSF1R) Assay:
Fluorescence polarization-based kinase biochemical assays were performed in 384 well-plate format using histidine tagged recombinant human colony stimulating factor 1 receptor (FMS) supplied from Invitrogen™ (containing the catalytic domain (amino acids 538-910), expressed in insect cells and activated in vitro via auto phosphorylation) and a modified protocol of the KinEASE™ FP Fluorescein Green Assay supplied from Millipore™.
Kinase reactions were performed in 384 well plate format at room temperature for 60 minutes in presence of 100 μM substrate, 10 μM ATP and variable test article concentrations. The reaction was stopped with EDTA/KinEASE™ detection reagents and the polarization measured on a Tecan 500 instrument. From the dose-response curve obtained, the IC50 was estimated using Graph pad Prisms® using a non linear fit curve.

[2] = tested on: M-NFS-60 M-CSF-dependent myeloid leukemia cells; test: Murine M-CSF-dependent M-NFS-60 cell survival assay; format: cell-based; settings: Mus musculus; cell survival at 72 hours, 20 ng/ml M-CSF, Cell Titer-Glo
Experimental: Cellular Assays: Murine M-CSF-Dependent M-NFS-60 Cell Survival Assay
Murine M-NFS-60 M-CSF-dependent myeloid leukemia cells were purchased from ATCC (CRL-1838). Cells were routinely cultured at 37° C., 5% CO2 in complete medium (RPMI supplemented with 10% FBS, 1% penicillin/streptomycin, 50 uM beta mercaptoethanol) containing 30 ng/ml recombinant murine M-CSF (Peprotech 315-02). For survival assays, cells were transferred to depleted medium (complete medium depleted of M-CSF) for 24 hours prior to initiation of each experiment. M-CSF-starved cells were harvested and re-suspended in complete medium containing 20 ng/ml M-CSF. Cells were seeded at 25,000 cells/well in 96-well plates and incubated for 1 hour at 37° C., 5% CO2. Cells were treated with 1 uM or 10 uM compound curves in triplicate and cell survival was measured 72 hours later by Cell Titer-Glo Luminescent Assay (Promega). Luminescence was read using a Tecan Infinite F200 microplate reader. EC50 values (50% survival in the presence of compound as compared to vehicle treated controls) were calculated from non-linear fit dose response compound curves using GraphPad Prism Software.

MV4-11 cells = test: Human MV4-11 biphenotypic B myelomonocytic leukemia cell survival assay; format: cell-based; settings: cell survival at 72h, Cell Titer-Glo
Experimental: Human MV4-11 Biphenotypic B Myelomonocytic Leukemia Cell Survival Assay
Biphenotypic B myelomonocytic leukemia MV4-11 cells (ATCC CRL-9591) were cultured in suspension at 37° C., 5% CO2 in complete medium (RPMI supplemented with 10% FBS, 1% penicillin/streptomycin). One day prior to treatment, cells per seeded in 96-well plates at 8000 cells/well in complete medium. The following day, triplicate wells were treated with compound curves of 100, 1000 or 10,000 nM starting concentration according to compound potency. Cell survival was measured 72h later by Cell Titer-Glo Luminescent Assay (Promega). Luminescence was read using a Tecan Infinite F200 microplate reader. EC50 values (50% survival in the presence of compound as compared to vehicle treated controls) were calculated from non-linear fit dose response compound curves using CambridgeSoft BioAssay software (Perkin Elmer).

EphA2 = target: T10, EphA2 (Homo sapiens, UniProt P29317); test: Kinase Profiler Service Assay, EphA2; format: biochemical; settings: at 100 nM
T10 construct: purchased Millipore (Kinase Profiler Service)
Experimental: as §1

216 other kinases = test: Kinase Profiler Service Assay, selectivity panel; format: biochemical; settings: at 300 nM
Experimental: as §1

T6 sequence (P11362 22-822): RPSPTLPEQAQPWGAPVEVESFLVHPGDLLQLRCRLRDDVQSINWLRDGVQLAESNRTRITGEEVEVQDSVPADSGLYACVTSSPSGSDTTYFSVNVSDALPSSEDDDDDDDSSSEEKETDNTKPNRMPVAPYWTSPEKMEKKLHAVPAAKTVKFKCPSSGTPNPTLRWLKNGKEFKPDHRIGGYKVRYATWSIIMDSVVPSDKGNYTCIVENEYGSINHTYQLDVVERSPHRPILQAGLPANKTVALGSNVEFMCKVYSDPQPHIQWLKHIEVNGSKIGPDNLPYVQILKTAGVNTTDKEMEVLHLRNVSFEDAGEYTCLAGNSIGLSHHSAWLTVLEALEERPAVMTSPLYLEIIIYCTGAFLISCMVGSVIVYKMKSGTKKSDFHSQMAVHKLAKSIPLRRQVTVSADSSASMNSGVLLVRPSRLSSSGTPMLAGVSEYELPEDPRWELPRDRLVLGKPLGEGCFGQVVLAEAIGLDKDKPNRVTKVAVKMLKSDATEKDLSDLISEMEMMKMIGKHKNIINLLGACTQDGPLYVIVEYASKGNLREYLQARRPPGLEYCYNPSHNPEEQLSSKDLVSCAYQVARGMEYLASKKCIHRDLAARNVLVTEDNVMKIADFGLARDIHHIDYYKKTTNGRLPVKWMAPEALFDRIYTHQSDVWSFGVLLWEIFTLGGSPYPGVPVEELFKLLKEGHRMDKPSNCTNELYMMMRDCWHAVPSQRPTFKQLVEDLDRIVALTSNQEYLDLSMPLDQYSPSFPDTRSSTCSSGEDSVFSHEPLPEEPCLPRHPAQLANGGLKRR
T4 sequence (P35968 20-1356): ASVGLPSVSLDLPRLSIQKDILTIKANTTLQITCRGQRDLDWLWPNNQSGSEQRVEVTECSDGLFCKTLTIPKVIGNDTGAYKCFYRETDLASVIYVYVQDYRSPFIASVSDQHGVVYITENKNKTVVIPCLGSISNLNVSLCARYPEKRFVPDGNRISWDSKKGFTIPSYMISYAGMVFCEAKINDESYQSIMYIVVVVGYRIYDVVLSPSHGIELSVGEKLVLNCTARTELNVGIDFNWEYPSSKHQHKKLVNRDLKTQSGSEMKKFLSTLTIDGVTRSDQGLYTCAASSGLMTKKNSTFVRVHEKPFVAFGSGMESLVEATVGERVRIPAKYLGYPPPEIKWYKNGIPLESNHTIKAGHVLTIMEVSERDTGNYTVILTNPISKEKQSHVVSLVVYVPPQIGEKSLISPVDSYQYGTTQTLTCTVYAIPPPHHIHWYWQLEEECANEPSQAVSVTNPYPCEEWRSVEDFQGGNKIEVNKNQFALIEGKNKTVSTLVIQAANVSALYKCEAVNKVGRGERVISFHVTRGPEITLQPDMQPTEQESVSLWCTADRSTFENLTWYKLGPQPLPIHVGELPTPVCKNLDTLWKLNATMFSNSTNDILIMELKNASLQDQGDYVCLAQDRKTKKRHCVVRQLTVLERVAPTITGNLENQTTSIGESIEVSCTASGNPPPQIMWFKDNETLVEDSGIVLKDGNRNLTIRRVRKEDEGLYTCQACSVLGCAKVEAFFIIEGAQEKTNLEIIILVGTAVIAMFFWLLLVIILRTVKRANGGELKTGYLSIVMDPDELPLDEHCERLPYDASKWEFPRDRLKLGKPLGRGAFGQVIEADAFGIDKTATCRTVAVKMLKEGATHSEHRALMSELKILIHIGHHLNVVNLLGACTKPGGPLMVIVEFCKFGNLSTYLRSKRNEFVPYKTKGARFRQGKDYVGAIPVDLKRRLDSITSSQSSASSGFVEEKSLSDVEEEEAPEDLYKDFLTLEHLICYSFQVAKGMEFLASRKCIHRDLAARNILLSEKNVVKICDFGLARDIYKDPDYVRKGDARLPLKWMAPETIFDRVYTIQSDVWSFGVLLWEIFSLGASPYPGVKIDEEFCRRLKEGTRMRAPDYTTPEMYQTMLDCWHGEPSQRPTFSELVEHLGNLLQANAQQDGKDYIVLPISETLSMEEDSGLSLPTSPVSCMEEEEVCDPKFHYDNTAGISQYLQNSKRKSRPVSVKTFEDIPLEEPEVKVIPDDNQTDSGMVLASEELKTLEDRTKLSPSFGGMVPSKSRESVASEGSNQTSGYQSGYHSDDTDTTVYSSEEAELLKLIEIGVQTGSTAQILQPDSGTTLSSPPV
T1 sequence (P07333 20-972): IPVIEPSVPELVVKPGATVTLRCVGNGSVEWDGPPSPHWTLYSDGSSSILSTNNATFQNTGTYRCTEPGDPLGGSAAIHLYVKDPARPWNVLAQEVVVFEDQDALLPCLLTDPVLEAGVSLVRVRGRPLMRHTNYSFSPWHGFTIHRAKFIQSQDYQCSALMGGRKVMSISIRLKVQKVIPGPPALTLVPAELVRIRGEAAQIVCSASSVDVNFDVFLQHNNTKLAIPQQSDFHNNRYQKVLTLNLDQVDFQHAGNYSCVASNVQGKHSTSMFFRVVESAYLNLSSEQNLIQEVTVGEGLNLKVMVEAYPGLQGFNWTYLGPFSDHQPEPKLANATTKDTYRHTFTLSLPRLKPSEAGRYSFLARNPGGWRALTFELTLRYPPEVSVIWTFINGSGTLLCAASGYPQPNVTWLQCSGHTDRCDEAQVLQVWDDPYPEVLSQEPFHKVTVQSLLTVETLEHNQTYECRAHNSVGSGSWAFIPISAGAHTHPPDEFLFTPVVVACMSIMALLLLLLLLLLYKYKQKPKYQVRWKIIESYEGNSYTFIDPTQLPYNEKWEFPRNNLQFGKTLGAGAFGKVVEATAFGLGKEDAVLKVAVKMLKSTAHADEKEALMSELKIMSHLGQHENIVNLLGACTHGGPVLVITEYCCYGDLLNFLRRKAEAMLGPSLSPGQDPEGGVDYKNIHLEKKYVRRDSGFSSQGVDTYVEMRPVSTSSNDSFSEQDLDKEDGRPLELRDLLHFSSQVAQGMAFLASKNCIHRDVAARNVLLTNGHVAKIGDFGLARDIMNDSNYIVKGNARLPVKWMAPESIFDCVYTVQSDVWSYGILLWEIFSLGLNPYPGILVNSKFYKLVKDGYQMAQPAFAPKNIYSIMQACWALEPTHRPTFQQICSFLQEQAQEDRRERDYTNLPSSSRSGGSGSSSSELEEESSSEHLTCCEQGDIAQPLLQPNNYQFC
T5 sequence (P09619 33-1106): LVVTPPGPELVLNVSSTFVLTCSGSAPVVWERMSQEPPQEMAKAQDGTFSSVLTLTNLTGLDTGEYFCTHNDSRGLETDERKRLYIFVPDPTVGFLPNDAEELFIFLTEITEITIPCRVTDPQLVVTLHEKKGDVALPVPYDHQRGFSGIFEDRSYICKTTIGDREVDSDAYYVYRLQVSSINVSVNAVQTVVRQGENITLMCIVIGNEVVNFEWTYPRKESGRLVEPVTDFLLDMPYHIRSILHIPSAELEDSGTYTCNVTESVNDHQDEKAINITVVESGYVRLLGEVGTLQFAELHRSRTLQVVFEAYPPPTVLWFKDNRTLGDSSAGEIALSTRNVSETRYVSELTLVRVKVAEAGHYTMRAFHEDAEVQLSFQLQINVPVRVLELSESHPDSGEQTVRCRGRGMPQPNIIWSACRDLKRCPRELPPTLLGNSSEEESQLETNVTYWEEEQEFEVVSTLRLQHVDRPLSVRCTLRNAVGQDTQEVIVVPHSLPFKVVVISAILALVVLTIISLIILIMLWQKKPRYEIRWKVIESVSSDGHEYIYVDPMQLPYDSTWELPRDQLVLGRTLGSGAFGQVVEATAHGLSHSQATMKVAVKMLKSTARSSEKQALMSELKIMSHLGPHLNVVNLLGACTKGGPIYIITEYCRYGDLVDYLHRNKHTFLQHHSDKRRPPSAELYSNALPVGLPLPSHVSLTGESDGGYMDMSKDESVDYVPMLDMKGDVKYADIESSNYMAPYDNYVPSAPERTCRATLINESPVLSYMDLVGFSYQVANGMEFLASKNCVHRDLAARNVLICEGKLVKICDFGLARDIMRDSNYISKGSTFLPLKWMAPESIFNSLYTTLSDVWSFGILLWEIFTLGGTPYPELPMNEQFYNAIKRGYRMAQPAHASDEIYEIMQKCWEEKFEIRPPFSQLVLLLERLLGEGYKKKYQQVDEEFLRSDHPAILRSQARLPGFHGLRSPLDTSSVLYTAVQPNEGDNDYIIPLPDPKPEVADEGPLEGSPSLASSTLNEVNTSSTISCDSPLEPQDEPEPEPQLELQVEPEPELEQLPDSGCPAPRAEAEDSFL
T2 sequence (Q96GD4 whole entry): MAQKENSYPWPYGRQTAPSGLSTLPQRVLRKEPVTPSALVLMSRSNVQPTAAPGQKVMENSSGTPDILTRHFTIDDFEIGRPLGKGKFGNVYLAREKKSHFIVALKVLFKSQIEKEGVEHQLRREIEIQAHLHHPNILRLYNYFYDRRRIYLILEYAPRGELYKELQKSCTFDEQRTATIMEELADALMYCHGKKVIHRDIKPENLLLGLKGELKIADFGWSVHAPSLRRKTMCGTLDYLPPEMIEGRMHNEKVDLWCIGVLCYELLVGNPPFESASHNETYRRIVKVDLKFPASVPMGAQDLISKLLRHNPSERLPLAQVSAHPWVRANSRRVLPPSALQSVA

Row | IC50 [1] [nM] | Structure (SMILES) | EC50 [2] [nM] | EC50 (MV4-11 cells) [nM] | other results
1 | 100 to 1000 | Nc1ncnc2c3c(n(-c4ccc(NC(=O)Nc5ccc(F)cc5)cc4)c12)CCC3 [Compound 14] | < 100 | < 100 | inhibition of cFMS (cFMS(h)): inhibits; inhibition of Aurora-B (Aurora-B(h)): inhibits; inhibition of Flt3 (Flt3 (h)): inhibits; inhibition of KDR (KDR(h)): inhibits; inhibition of PDGFR-b (PDGFR-b(h)): inhibits; inhibition of FGFR1 (FGFR1): inhibits; inhibition of Tie2 (Tie2): inhibits; inhibition of FLT4 (FLT4): inhibits
2 | 100 to 1000 | Nc1ncnc2c3c(n(-c4ccc(NC(=O)Nc5cc(C(F)(F)F)ccc5F)cc4)c12)CCC3 [Compound 44] | 100 to 1000 | < 100 | inhibition of cFMS (cFMS(h)): inhibits; inhibition of Flt3 (Flt3 (h)): inhibits; inhibition of KDR (KDR(h)): inhibits; inhibition of FGFR1 (FGFR1): inhibits; inhibition of EphA2 (EphA2): inhibits; inhibition of 216 other kinases (selectivity) (216 other kinases): ≤ 20%
3 | 100 to 1000 | Nc1ncnc2c3c(n(-c4ccc(NC(=O)Nc5cccc(OC(F)F)c5)cc4)c12)CCC3 [Compound 57] | < 100 | < 100 | –
4 | < 100 | Nc1ncnc2c3c(n(-c4ccc(NC(=O)Nc5ccccc5)cc4)c12)CCC3 [Compound 4] | < 100 | < 100 | –
5 | < 100 | Cc1ccc(F)c(NC(=O)Nc2ccc(-n3c4c(c5ncnc(N)c53)CCC4)cc2)c1 [Compound 43] | < 100 | < 100 | –
6 | < 100 | Nc1ncnc2c3c(n(-c4ccc(NC(=O)Nc5ccc6c(c5)OCO6)cc4)c12)CCC3 [Compound 28] | < 100 | < 100 | –
7 | 100 to 1000 | Nc1ncnc2c3c(n(-c4ccc(NC(=O)Nc5ccccc5F)cc4)c12)CCC3 [Compound 39] | < 100 | 100 to 1000 | –
8 | 100 to 1000 | Nc1ncnc2c3c(n(-c4ccc(NC(=O)Nc5ccc(Cl)c(C(F)(F)F)c5)cc4)c12)CCC3 [Compound 59] | 100 to 1000 | < 100 | –
9 | < 100 | Nc1ncnc2c3c(n(-c4ccc(NC(=O)Nc5cccc(C(F)(F)F)c5)cc4)c12)COC3 [Compound 48] | 100 to 1000 | < 100 | –
10 | > 1000 | Nc1ncnc2c3c(n(-c4ccc(Nc5ccccc5)cc4)c12)CCC3 [Compound 12] | > 1000 | > 1000 | –
11 | 100 to 1000 | Nc1ncnc2c3c(n(-c4ccc(NC(=O)Nc5cc(C(F)(F)F)ccc5F)cc4)c12)COC3 [Compound 67] | 100 to 1000 | < 100 | –
12 | 100 to 1000 | Nc1ncnc2c3c(n(-c4ccc(NC(=O)Nc5ccccc5OC(F)F)cc4)c12)CCC3 [Compound 68] | 100 to 1000 | < 100 | –
13 | 100 to 1000 | Nc1ncnc2c3c(n(-c4ccc(NC(=O)Nc5cccc(Cl)c5)cc4)c12)CCC3 [Compound 20] | < 100 | 100 to 1000 | –
14 | 100 to 1000 | Nc1ncnc2c3c(n(-c4ccc(NC(=O)Nc5ccc(F)cc5F)cc4)c12)CCC3 [Compound 50] | < 100 | < 100 | –
15 | 100 to 1000 | COc1ccc(NC(=O)Nc2ccc(-n3c4c(c5ncnc(N)c53)CCC4)cc2)cc1C(F)(F)F [Compound 55] | 100 to 1000 | < 100 | –
16 | < 100 | COc1cccc(NC(=O)Nc2ccc(-n3c4c(c5ncnc(N)c53)CCC4)cc2)c1 [Compound 11] | < 100 | < 100 | –
17 | > 1000 | CCNC(=O)Nc1ccc(-n2c3c(c4ncnc(N)c42)CCC3)cc1 [Compound 9] | > 1000 | 100 to 1000 | –
18 | 100 to 1000 | Cc1ccc(F)c(NC(=O)Nc2ccc(-n3c4c(c5ncnc(N)c53)COC4)cc2)c1 [Compound 47] | < 100 | < 100 | –
